Tested on: extracellular dopamine levels
Assay: In vivo microdialysis of extracellular dopamine (mPFC, NAc shell, NAc core)
Design: species or system Male Sprague Dawley rats
Settings: for DA Concentrations (as Determined from AUCs): mean ± SEM
Experimental: Male Sprague Dawley rats (250–350 g, Janvier, France) were used for all in vivo microdialysis experiments. Animals were kept in groups of four in standard cages (38 cm × 60 cm × 20 cm) and were acclimated to the facility for at least ten days before the beginning of the experiment under controlled environmental conditions (22 ± 2 °C, 60% humidity, 12 h light/dark cycle, with lights on from 08:00 to 20:00 h), with water and standard laboratory food provided ad libitum. To limit the stress due to manipulation during the experiments, each animal was daily handled for approximately 1–2 min throughout the habituation period and contact with the animal house maintenance personnel was limited to a single attendant. The bedding in the home cages was never changed, neither the day before nor the day of the experiment. All experiments were performed between 10:00–18:00 h. (S)-MK-26 (1 or 10 mg/kg) or vehicle (Kolliphor 30% in distilled water) were freshly prepared on the day of the experiment and i.p. administered at a volume of 1.5 mL/kg. The day before the microdialysis experiment, rats were positioned in a stereotaxic apparatus (Stoelting Co., Wood Dale, IL, USA) and under isoflurane anaesthesia (1.5–2%) (Harvard Apparatus, Holliston, MA, USA) implanted with a vertical microdialysis probe. A probe with dialysis membrane of approximately 2–3 mm of free surface (prepared as previously described) was directed unilaterally at the mPFC (PrL and IL; coordinates: 3.0 mm anterior and 0.7 mm lateral to bregma, and 5.5 mm ventral to dura), at the NAc shell (coordinates: 2.0 mm anterior and 0.8 mm lateral to bregma, and 8.0 mm ventral to dura) or NAc core (coordinates: 1.6 mm anterior and 1.6 mm lateral to bregma, and 7.6 mm ventral to dura), according to the rat brain atlas. On the day of the experiment, the animals were transferred to a sound-proof room and after 1 h habituation period, the microdialysis probe was connected with polyethylene tubing to a CMA/100 microinfusion pump (Harvard Apparatus, Holliston, MA, USA) and perfused with a Ringer’s solution (147 mM NaCl, 3 mM KCl and 1.2 mM CaCl2, pH 6.5) at a flow rate of 2.5 µL/min. After an equilibration period of a 2 h of the perfusion medium with the extracellular fluid, dialysate aliquots of 37.5 µL were collected (every 15 min during the experiment) in polyethylene tubes kept on ice for the determination of dopamine concentrations. After collecting at least four dialysate aliquots, rats were i.p. injected with vehicle or (S)-MK-26 (1 or 10 mg/kg), and ten more dialysate aliquots were collected every 15 min. Dopamine concentrations in the dialysates from the NAc (core and shell) and mPFC were measured by high pressure liquid chromatography (HPLC) on a 7.5 cm × 3.0 mm i.d., Supelcosil C18, 3 µm particle size column, (Supelco, Supelchem, Milan, Italy) coupled to electrochemical detection (Coulochem II, ESA, Cambridge, MA, USA) using a 4011 dual cell, as previously described. Detection was performed in reduction mode, with potentials set to +350 and −180 mV. The mobile phase was 0.06 M citrate/acetate pH 4.2, containing methanol 20% v/v, 0.1 mM EDTA, 1 µM triethylamine, and 0.03 mM sodium dodecyl sulphate at a flow rate of 0.6 mL/min. The sensitivity of the assay was 0.125 pg. At the end of the experiments, the rats were sacrificed by decapitation; the brains were immediately removed from the skull and stored in 4% aqueous formaldehyde for 12–15 days. After this period, 40 µm coronal brain sections were prepared with a freezing microtome, stained with Neutral Red and inspected on a phase contrast microscope. The position of the tip of the microdialysis probe in the NAc (core and shell) and mPFC were then corroborated by following the tract of the microdialysis probe through a series of brain sections. […]

[O-][S@@+](Cc1cncs1)C(c1cccc(Cl)c1)c1cccc(Cl)c1 [(S)-MK-26, (S)-5-(((B(3-chlorophenyl)methyl)sulphinyl)methyl)thiazole]
DA Concentrations (as Determined from AUCs) (NAc core dialysate, 1 mg/kg i.p.): 3056 ± 644
DA Concentrations (as Determined from AUCs) (NAc core dialysate, 10 mg/kg i.p.): 7861 ± 1697
peak increase of extracellular dopamine concentration above basal values (NAc core, 1 mg/kg i.p.): about 25%
peak increase of extracellular dopamine concentration (NAc core, 10 mg/kg i.p., peak 60–75 min after treatment): about 65%
DA Concentrations (as Determined from AUCs) (NAc shell dialysate, 1 mg/kg i.p.): 2972 ± 1094
DA Concentrations (as Determined from AUCs) (NAc shell dialysate, 10 mg/kg i.p.): 7730 ± 1389
peak increase of extracellular dopamine concentration (NAc shell, 10 mg/kg i.p., peak 30–45 min after treatment): about 70%
DA Concentrations (as Determined from AUCs) (mPFC dialysate, 1 mg/kg i.p.): 3159 ± 223
DA Concentrations (as Determined from AUCs) (mPFC dialysate, 10 mg/kg i.p.): 4983 ± 547
peak increase of extracellular dopamine concentration (mPFC, 1 mg/kg i.p., peak at 30 min after treatment): about 40%
peak increase of extracellular dopamine concentration (mPFC, 10 mg/kg i.p., peak at 45 min after treatment): about 75%

Source: publication PMC9312958, “A Novel and Selective Dopamine Transporter Inhibitor, (S)-MK-26, Promotes Hippocampal Synaptic Plasticity and Restores Effort-Related Motivational Dysfunctions” (Biomolecules, 2022)
